Measured values published in the supplement of paper PMC10307832.

How the values were obtained:
Test in all cases: relative viability (nuclei count vs DMSO), 5 days (fraction); higher = more cells survive
Serdemetan + Alpelisib = compound: c1ccc2c(CCNc3ccc(Nc4ccncc4)cc3)c[nH]c2c1 [Serdemetan] + Cc1nc(NC(=O)N2CCC[C@H]2C(N)=O)sc1-c1ccnc(C(C)(C)C(F)(F)F)c1 [Alpelisib] (partner 2 µM)
How it was run: (§1)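 Relative viability divides the nuclei count in treated wells by that in vehicle wells. Lung cancer cell lines were seeded in 1536-well plates, dosed by pin tool the next day, and fixed and stained after 5 days in one step with final 0.05% Triton X-100, 1% formaldehyde and 1 ug/ml Hoechst. Dosing was a single drug or a fixed anchor-drug dose plus five library-drug doses (not always all listed) in √10 steps, and values are medians of duplicate plates imaged at 4×.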

Selisistat + Phenformin = compound: C1CC(C2=C(C1)C3=C(N2)C=CC(=C3)Cl)C(=O)N [Selisistat] + N=C(N)NC(=N)NCCc1ccccc1 [Phenformin] (partner 250 µM)
How it was run: as §1

Selisistat + Navitoclax = compound: C1CC(C2=C(C1)C3=C(N2)C=CC(=C3)Cl)C(=O)N [Selisistat] + CC1(C)CCC(c2ccc(Cl)cc2)=C(CN2CCN(c3ccc(C(=O)NS(=O)(=O)c4ccc(N[C@H](CCN5CCOCC5)CSc5ccccc5)c(S(=O)(=O)C(F)(F)F)c4)cc3)CC2)C1 [Navitoclax] (partner 0.5 µM)
How it was run: as §1

Serdemetan + Luminespib = compound: c1ccc2c(CCNc3ccc(Nc4ccncc4)cc3)c[nH]c2c1 [Serdemetan] + CCNC(=O)c1noc(-c2cc(C(C)C)c(O)cc2O)c1-c1ccc(CN2CCOCC2)cc1 [Luminespib] (partner 0.01 µM)
How it was run: as §1

Cell Line | relative viability (Serdemetan + Alpelisib; first compound 0.04 µM) | relative viability (Serdemetan + Alpelisib; first compound 0.1265 µM) | relative viability (Serdemetan + Alpelisib; first compound 0.4 µM) | relative viability (Serdemetan + Alpelisib; first compound 1.265 µM) | relative viability (Serdemetan + Alpelisib; first compound 4 µM) | relative viability (Selisistat + Phenformin; first compound 0.4 µM) | relative viability (Selisistat + Phenformin; first compound 1.265 µM) | relative viability (Selisistat + Phenformin; first compound 4 µM) | relative viability (Selisistat + Phenformin; first compound 12.65 µM) | relative viability (Selisistat + Phenformin; first compound 40 µM) | relative viability (Selisistat + Navitoclax; first compound 0.4 µM) | relative viability (Selisistat + Navitoclax; first compound 1.265 µM) | relative viability (Selisistat + Navitoclax; first compound 4 µM) | relative viability (Selisistat + Navitoclax; first compound 12.65 µM) | relative viability (Selisistat + Navitoclax; first compound 40 µM) | relative viability (Serdemetan + Luminespib; first compound 0.04 µM) | relative viability (Serdemetan + Luminespib; first compound 0.1265 µM) | relative viability (Serdemetan + Luminespib; first compound 1.265 µM) | relative viability (Serdemetan + Luminespib; first compound 4 µM) | relative viability (Serdemetan + Luminespib; first compound 0.4 µM)
HCC-78 | 0.337 | 0.36 | 0.349 | 0.364 | 0.262 | 0.774 | 0.815 | 0.54 | 0.685 | 0.744 | 0.961 | 0.836 | 0.765 | 0.705 | 0.714 | – | – | – | – | –
HCC-366 | 0.403 | 0.434 | 0.208 | 0.0495 | 0.0462 | 0.662 | 0.679 | 0.557 | 0.575 | 0.609 | 1.15 | 0.965 | 0.89 | 0.97 | 1.08 | – | – | – | – | –
HCC-827 | 0.924 | 0.934 | – | 0.723 | 0.6 | 0.448 | 0.399 | 0.428 | 0.395 | 0.432 | 1.03 | 0.992 | 1.01 | 1.01 | 1.01 | 0.606 | 0.563 | 0.288 | 0.344 | –
HOP-62 | 0.966 | 0.914 | 0.947 | 0.76 | 0.841 | 0.663 | 0.619 | 0.777 | 0.64 | 0.676 | 1.07 | 0.905 | 1.02 | 0.934 | 1.16 | 0.758 | 0.915 | 0.666 | 0.596 | 0.848
IA-LM | 0.726 | 0.834 | 0.729 | 0.535 | 0.568 | – | – | – | – | – | 0.787 | 0.82 | 0.946 | 0.818 | 0.835 | – | – | – | – | –
LC-2-ad | 0.987 | 0.804 | 0.803 | – | 0.806 | 0.625 | – | 0.437 | 0.582 | 0.632 | 0.514 | 0.475 | 0.507 | 0.485 | 0.561 | 0.951 | 0.944 | 0.898 | 0.899 | 0.969
LCLC-97TM1 | 0.258 | 0.203 | 0.241 | 0.225 | 0.202 | 0.426 | 0.409 | – | 0.362 | 0.461 | 0.535 | 0.476 | 0.621 | 0.473 | 0.483 | 0.739 | 0.738 | – | 0.596 | 0.653
LCLC-103H | 0.944 | 0.957 | 0.923 | 0.844 | 0.764 | 0.339 | 0.338 | 0.334 | 0.351 | 0.355 | – | – | – | – | – | 0.971 | 1.03 | 0.975 | 0.751 | 1
LK-2 | 1.1 | 1.28 | 1.25 | 1.06 | 0.652 | 0.577 | 0.373 | 0.385 | 0.382 | 0.387 | 1.01 | 0.746 | 0.954 | 0.847 | 1.04 | 0.18 | 0.172 | 0.161 | 0.2 | 0.191
LOU-NH91 | 0.741 | 0.677 | – | 0.761 | 0.679 | 0.822 | 0.691 | 0.627 | 0.71 | 0.728 | 0.695 | 0.637 | 0.58 | 0.664 | 0.707 | 0.282 | 0.334 | 0.296 | 0.299 | 0.347
LU99A | 0.516 | 0.576 | 0.342 | 0.175 | 0.17 | 0.897 | 0.956 | 0.956 | 0.806 | 0.832 | 0.797 | 0.864 | 0.864 | 0.915 | 0.966 | 0.26 | 0.259 | 0.182 | 0.193 | 0.185
NCI-H358 | 0.86 | 0.946 | 0.906 | 0.679 | 0.734 | 0.358 | 0.281 | 0.186 | 0.332 | 0.412 | – | – | – | – | – | 0.63 | 0.351 | 0.465 | 0.207 | 0.254
NCI-H522 | – | – | – | – | – | 0.695 | 0.61 | 0.469 | 0.61 | 0.687 | – | – | – | – | – | 1.15 | 1.42 | 0.873 | 1.45 | 1.25
NCI-H650 | 0.965 | 1.15 | 1.11 | 0.92 | 0.67 | 0.499 | 0.432 | 0.441 | 0.432 | 0.485 | – | – | – | – | – | 0.659 | 0.875 | 0.576 | 0.505 | 0.732
NCI-H661 | 0.759 | 0.429 | 0.676 | 0.197 | 0.428 | 0.27 | 0.263 | 0.282 | 0.286 | 0.251 | – | – | – | – | – | 0.91 | 0.943 | 0.799 | 0.854 | 0.95
NCI-H1299 | 0.992 | 0.996 | 1.03 | 0.96 | 0.968 | – | – | – | – | – | 1.1 | 1.08 | 1.01 | 1.05 | 1.04 | – | – | – | – | –
NCI-H1563 | 0.89 | 0.893 | 0.931 | 0.815 | 0.763 | 0.662 | 0.658 | 0.63 | 0.638 | 0.585 | – | – | – | – | – | 0.499 | 0.481 | 0.458 | 0.436 | 0.555
NCI-H1623 | – | – | – | – | – | 0.557 | 0.556 | 0.413 | 0.579 | 0.533 | – | – | – | – | – | 0.498 | 0.481 | 0.551 | 0.427 | 0.432
NCI-H1650 | – | – | – | – | – | 0.375 | 0.448 | 0.336 | 0.361 | 0.465 | 1.16 | 1.41 | 1.14 | 1.31 | 1.12 | 0.212 | 0.213 | 0.177 | 0.184 | 0.205
NCI-H1703 | 0.389 | 0.345 | 0.306 | 0.277 | 0.374 | – | – | – | – | – | 1.24 | 1.15 | 1.25 | 1.42 | 1.27 | – | – | – | – | –
NCI-H2342 | – | – | – | – | – | 0.562 | 0.54 | 0.504 | 0.601 | 0.61 | – | – | – | – | – | 0.738 | 0.722 | 0.508 | 0.506 | 0.704
SW 900 | – | – | – | – | – | 0.632 | 0.621 | 0.468 | 0.484 | 0.641 | – | – | – | – | – | 0.185 | 0.168 | 0.164 | 0.176 | 0.196
